Data on 19 molecules can be found in ChEMBL document CHEMBL1909046, “DrugMatrix in vitro pharmacology data”.

Broadly, the IC50 is the point on the concentration scale where inhibition reaches its midpoint. For orientation: Ki means the equilibrium dissociation constant of an inhibitor or competing ligand from its target.

The target in one data set is T1, Adenosine receptor A3 (Homo sapiens, UniProt P0DMS8).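 Also: radioligand binding assay with AB-MECA serving as the labeled ligand; in other assays of this panel Not Active means under 50% inhibition at 10 µM.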
T1 sequence (P0DMS8 whole entry): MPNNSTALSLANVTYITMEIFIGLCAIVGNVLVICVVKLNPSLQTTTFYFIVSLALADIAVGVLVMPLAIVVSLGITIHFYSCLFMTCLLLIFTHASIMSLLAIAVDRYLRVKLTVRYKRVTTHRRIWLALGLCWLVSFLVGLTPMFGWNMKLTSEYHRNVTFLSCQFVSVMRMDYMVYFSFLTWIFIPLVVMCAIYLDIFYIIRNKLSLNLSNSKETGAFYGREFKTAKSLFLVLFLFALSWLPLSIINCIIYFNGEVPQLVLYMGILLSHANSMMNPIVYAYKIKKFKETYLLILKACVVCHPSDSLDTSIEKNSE
The data set is classed as cell membranes, CHO-K1, Membrane.

Data set [1] deals with Kappa-type opioid receptor (Homo sapiens, UniProt P41145). The data set is described as follows: DRUGMATRIX: Opiate kappa (OP2, KOP) radioligand binding (ligand: [3H] Diprenorphine). The data set is classed as cell membranes, HEK293, Membrane. The following applies: Not Active = under 50% inhibition at 10 µM; for IC50: hek293.
Kappa-type opioid receptor, sequence (P41145 whole entry): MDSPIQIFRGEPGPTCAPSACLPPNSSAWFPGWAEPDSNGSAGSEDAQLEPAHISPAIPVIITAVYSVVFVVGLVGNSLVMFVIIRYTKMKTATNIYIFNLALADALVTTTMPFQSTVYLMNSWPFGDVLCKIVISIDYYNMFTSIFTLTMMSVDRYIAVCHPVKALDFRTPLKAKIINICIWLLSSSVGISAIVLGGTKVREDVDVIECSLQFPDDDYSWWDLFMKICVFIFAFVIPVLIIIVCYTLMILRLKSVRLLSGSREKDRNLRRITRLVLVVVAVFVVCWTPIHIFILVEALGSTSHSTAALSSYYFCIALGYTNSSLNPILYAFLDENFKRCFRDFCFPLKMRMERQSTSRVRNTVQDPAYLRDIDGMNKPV
The target of the next data set is T2, Neutrophil elastase (Homo sapiens, UniProt P08246).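 Also: inhibition of neutrophil elastase enzyme activity, measured with a p-nitroanilide-linked peptide substrate; in other assays of this panel Not Active means under 50% inhibition at 10 µM.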
T2 sequence (P08246 whole entry): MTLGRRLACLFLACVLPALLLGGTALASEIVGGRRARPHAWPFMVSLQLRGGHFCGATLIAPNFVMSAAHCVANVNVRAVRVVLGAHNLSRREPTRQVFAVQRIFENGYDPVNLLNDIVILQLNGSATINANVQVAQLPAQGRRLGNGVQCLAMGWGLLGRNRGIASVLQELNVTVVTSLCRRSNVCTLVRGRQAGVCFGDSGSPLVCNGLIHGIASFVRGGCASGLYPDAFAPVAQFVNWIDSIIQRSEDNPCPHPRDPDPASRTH
The data set is classed as tissue-based.

The target in another data set is Glycine receptor (Rattus norvegicus, UniProt P22771+P24524+P07727+P20781). Type of data set: cell membranes, Wistar, Spinal cord, Membrane. Also: in other assays of this panel Not Active means under 50% inhibition at 10 µM.
The target in data set [2] is Tyrosine-protein kinase Fyn (Homo sapiens, UniProt P06241). As to the kind of experiment: biochemical. Type of data set: cell-based, Insect cells.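 Also: enzymatic inhibition of Fyn kinase activity measured with Poly(Glu:Tyr) as the phosphorylation substrate; in other assays of this panel Not Active means under 50% inhibition at 10 µM.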
Tyrosine-protein kinase Fyn, sequence (P06241 whole entry): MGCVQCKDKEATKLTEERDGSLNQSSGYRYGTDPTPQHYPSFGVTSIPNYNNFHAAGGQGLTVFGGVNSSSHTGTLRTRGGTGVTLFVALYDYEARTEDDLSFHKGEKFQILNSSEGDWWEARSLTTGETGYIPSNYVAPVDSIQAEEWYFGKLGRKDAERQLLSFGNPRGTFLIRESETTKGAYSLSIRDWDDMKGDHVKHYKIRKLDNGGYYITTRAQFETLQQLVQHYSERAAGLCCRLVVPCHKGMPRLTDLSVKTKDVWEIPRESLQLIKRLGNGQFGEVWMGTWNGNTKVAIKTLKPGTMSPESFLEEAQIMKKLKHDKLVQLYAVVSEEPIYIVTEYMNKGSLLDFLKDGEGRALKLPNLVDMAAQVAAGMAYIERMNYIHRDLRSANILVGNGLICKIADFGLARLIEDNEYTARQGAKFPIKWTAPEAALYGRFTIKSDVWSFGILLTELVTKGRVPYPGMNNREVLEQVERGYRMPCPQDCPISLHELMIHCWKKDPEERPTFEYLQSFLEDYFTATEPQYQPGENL
The target of the next data set is Cytochrome P450 2C19 (Homo sapiens, UniProt P33261). The following applies: bti-tn-5b1-4. Also: in other assays of this panel Not Active means under 50% inhibition at 10 µM.
Cytochrome P450 2C19, sequence (P33261 whole entry): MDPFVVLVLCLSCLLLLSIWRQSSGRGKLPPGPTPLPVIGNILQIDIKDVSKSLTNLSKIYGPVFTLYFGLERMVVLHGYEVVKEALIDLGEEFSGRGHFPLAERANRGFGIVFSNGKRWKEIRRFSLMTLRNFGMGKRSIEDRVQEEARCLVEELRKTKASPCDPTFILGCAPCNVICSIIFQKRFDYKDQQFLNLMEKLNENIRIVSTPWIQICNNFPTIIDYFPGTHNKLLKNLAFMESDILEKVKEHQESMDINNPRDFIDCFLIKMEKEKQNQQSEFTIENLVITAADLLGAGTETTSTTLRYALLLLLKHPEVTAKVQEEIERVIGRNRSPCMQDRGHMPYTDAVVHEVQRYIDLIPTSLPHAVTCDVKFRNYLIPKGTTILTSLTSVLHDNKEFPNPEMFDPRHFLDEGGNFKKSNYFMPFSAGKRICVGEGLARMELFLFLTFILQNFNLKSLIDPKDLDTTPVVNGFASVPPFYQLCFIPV
A short description of data set [3]: DRUGMATRIX: Serotonin (5-Hydroxytryptamine) 5-HT3 radioligand binding (ligand: [3H] GR-65630). The data set is classed as cell membranes, Membrane. Particulars: hek293; Not Active = under 50% inhibition at 10 µM.
Data set [4] in a line: DRUGMATRIX: Nicotinic Acetylcholine radioligand binding (ligand: [125I] Epibatidine). The following applies: imr-32; Not Active = under 50% inhibition at 10 µM. The data set is classed as cell membranes, Membrane.

Consider `Cc1c(C)c2c(c(C)c1O)CCC(C)(COc1ccc(CC3SC(=O)NC3=O)cc1)O2` (stereo not given) [TROGLITAZONE], for which the IC50 at Adenosine receptor A3 (read-out: IC50) is 5.21 µM; in data set [1], “Not Active”; against Neutrophil elastase, “Not Active”; against Glycine receptor it was “Not Active”; in data set [2] (insect cells) it was “Not Active”; at Cytochrome P450 2C19, “Not Active”. Besides, the IC50 result in data set [3] and in data set [4] was “Not Active” in each case. The inhibitory constant (Ki) on Adenosine receptor A3 (read-out: Ki) is 2.94 µM; at Cytochrome P450 2C19, “Not Active”; in data set [3], “Not Active”; in data set [4], “Not Active”.
For the molecule `c1ccc([C@H]2CN3CCSC3=N2)cc1` [LEVAMISOLE], the IC50 entry (on Adenosine receptor A3 (cho-k1); in data set [1]; against Neutrophil elastase; against Glycine receptor; in data set [2] (insect cells); at Cytochrome P450 2C19) was “Not Active” in each case. Besides, the IC50 result in data set [3] and in data set [4] was “Not Active” each time. The inhibition constant (Ki) result (at Cytochrome P450 2C19; in data set [3]; in data set [4]) was “Not Active” throughout.
Consider `CC[C@]1(O)C[C@H]2CN(CCc3c([nH]c4ccccc34)[C@@](C(=O)OC)(c3cc4c(cc3OC)N(C=O)[C@H]3[C@@](O)(C(=O)OC)[C@H](OC(C)=O)[C@]5(CC)C=CCN6CC[C@]43[C@@H]65)C2)C1` [VINCRISTINE], for which the IC50 entry (against Adenosine receptor A3 (cho-k1); in data set [1]; at Neutrophil elastase; against Glycine receptor; in data set [2] (insect cells); on Cytochrome P450 2C19) was “Not Active” each time. For the same molecule, the IC50 result in data set [3] and in data set [4] was “Not Active” in each case. Also, the Ki result (at Cytochrome P450 2C19; in data set [3]; in data set [4]) was “Not Active” each time.
For `O=c1ncn2nc(Sc3ccc(F)cc3F)ccc2c1-c1c(Cl)cccc1Cl` [NEFLAMAPIMOD], the IC50 on Adenosine receptor A3 (read-out: IC50) is 8.55 µM; in data set [1], “Not Active”; at Neutrophil elastase, “Not Active”; against Glycine receptor, “Not Active”; in data set [2] (insect cells), “Not Active”; at Cytochrome P450 2C19, “Not Active”. Also, the IC50 entry in data set [3] and in data set [4] was “Not Active” each time. The inhibitory constant (Ki) is 4.83 µM at Adenosine receptor A3 (read-out: Ki), “Not Active” on Cytochrome P450 2C19, “Not Active” in data set [3] and “Not Active” in data set [4].
Regarding `NS(=O)(=O)c1cc2c(cc1Cl)NC(C(Cl)Cl)NS2(=O)=O` (stereo not given) [TRICHLORMETHIAZIDE], the concentration for half-maximal inhibition (IC50) entry (at Adenosine receptor A3 (cho-k1); in data set [1]; against Neutrophil elastase; on Glycine receptor; in data set [2] (insect cells); at Cytochrome P450 2C19) was “Not Active” in each case. Moreover, the IC50 result in data set [3] and in data set [4] was “Not Active” in each case. The inhibition constant Ki result (at Cytochrome P450 2C19; in data set [3]; in data set [4]) was “Not Active” throughout.
For `CCCOc1ccccc1-c1nc2nn[nH]c2c(=O)[nH]1` [ZAPRINAST], the IC50 result (against Adenosine receptor A3 (cho-k1); in data set [1]; at Neutrophil elastase; on Glycine receptor; in data set [2] (insect cells); against Cytochrome P450 2C19) was “Not Active” each time. For the same molecule, the IC50 result in data set [3] and in data set [4] was “Not Active” throughout. Besides, the inhibition constant (Ki) result (on Cytochrome P450 2C19; in data set [3]; in data set [4]) was “Not Active” in each case.
`CC/C(=C(\c1ccccc1)c1ccc(OCCN(C)C)cc1)c1ccccc1` [TAMOXIFEN]: the IC50 is 3.7 µM on Adenosine receptor A3 (read-out: IC50); “Not Active” at Neutrophil elastase; “Not Active” against Glycine receptor; 1.2 µM in data set [2] (read-out: IC50); “Not Active” on Cytochrome P450 2C19. Further, the Ki was 2.09 µM at Adenosine receptor A3 (read-out: Ki), 6.25 µM in data set [1] and “Not Active” on Cytochrome P450 2C19.
Consider `N[C@@H](Cc1ccc(N(CCCl)CCCl)cc1)C(=O)O`, for which the half-maximal inhibitory concentration (IC50) result (against Adenosine receptor A3 (cho-k1); against Neutrophil elastase; against Glycine receptor; in data set [2] (insect cells); against Cytochrome P450 2C19; in data set [3]) was “Not Active” each time. Moreover, in data set [4], the half-maximal inhibitory concentration (IC50) result is on record as “Not Active”. Besides, the Ki entry (on Cytochrome P450 2C19; in data set [3]; in data set [4]) was “Not Active” throughout.
As for `Nc1nc2ccc(OC(F)(F)F)cc2s1` [RILUZOLE], the IC50 entry (at Adenosine receptor A3 (cho-k1); in data set [1]; on Neutrophil elastase; on Glycine receptor; in data set [2] (insect cells); in data set [3]) was “Not Active” in each case. The concentration for half-maximal inhibition (IC50) result in data set [4] is on record as “Not Active”. The inhibition constant (Ki) entry in data set [3] and in data set [4] was “Not Active” throughout.
Consider SODIUM NITROPRUSSIDE, for which the IC50 entry (on Adenosine receptor A3 (cho-k1); at Neutrophil elastase; on Glycine receptor; in data set [2] (insect cells); against Cytochrome P450 2C19; in data set [3]) was “Not Active” throughout. In addition, the half-inhibitory concentration (IC50) entry in data set [4] is reported as “Not Active”. The inhibition constant Ki entry (on Adenosine receptor A3 (cho-k1); on Neutrophil elastase; on Glycine receptor; in data set [2] (insect cells); on Cytochrome P450 2C19; in data set [3]) was “Not Active” each time. Moreover, in data set [4], the inhibitory constant (Ki) result was “Not Active”.
With `Cc1cccc(N(C)C(=S)Oc2ccc3ccccc3c2)c1` [TOLNAFTATE], the 50% inhibitory concentration (IC50) entry (against Adenosine receptor A3 (cho-k1); in data set [1]; at Neutrophil elastase; on Glycine receptor; in data set [2] (insect cells); in data set [3]) was “Not Active” throughout. For the same molecule, the IC50 result in data set [4] is “Not Active”. The inhibitory constant (Ki) entry in data set [3] and in data set [4] was “Not Active” in each case.
With `CN1CCN(CCCN2c3ccccc3Sc3ccc(Cl)cc32)CC1` [PROCHLORPERAZINE], the IC50 result at Adenosine receptor A3 (cho-k1) is “Not Active”; in data set [1], “Not Active”; on Neutrophil elastase, “Not Active”; against Glycine receptor, “Not Active”; in data set [2] (read-out: IC50), 5.68 µM; against Cytochrome P450 2C19, “Not Active”. The Ki result at Cytochrome P450 2C19 is recorded as “Not Active”.
For `CC[C@@H](CO)NC(=O)[C@@H]1C=C2c3cccc4[nH]cc(c34)C[C@H]2N(C)C1` [METHYLERGONOVINE], the half-maximal inhibitory concentration (IC50) result (at Adenosine receptor A3 (cho-k1); on Neutrophil elastase; against Glycine receptor; in data set [2] (insect cells); in data set [4]) was “Not Active” each time. The Ki entry in data set [4] was “Not Active”.
Regarding `CCOC(=O)N1CCC(=C2c3ccc(Cl)cc3CCc3cccnc32)CC1` [LORATADINE], the half-inhibitory concentration (IC50) entry (against Adenosine receptor A3 (cho-k1); in data set [1]; against Neutrophil elastase; against Glycine receptor; in data set [2] (insect cells); in data set [3]) was “Not Active” throughout. Besides, the IC50 result in data set [4] is given as “Not Active”. For the same molecule, the Ki entry in data set [3] and in data set [4] was “Not Active” throughout.
With `CC(=O)[C@@]1(O)CC[C@H]2[C@@H]3C[C@H](C)C4=CC(=O)CC[C@]4(C)[C@H]3CC[C@@]21C`, the IC50 entry (on Adenosine receptor A3 (cho-k1); in data set [1]; at Neutrophil elastase; against Glycine receptor; in data set [2] (insect cells); in data set [3]) was “Not Active” in each case. In addition, the IC50 entry in data set [4] is “Not Active”. The Ki entry in data set [3] and in data set [4] was “Not Active” in each case.
With `CC(C)N1CCN(c2ccc(OCC3COC(Cn4cncn4)(c4ccc(Cl)cc4Cl)O3)cc2)CC1` (stereo not given) [TERCONAZOLE], the 50% inhibitory concentration (IC50) result was “Not Active” at Adenosine receptor A3 (cho-k1); “Not Active” in data set [1]; “Not Active” against Neutrophil elastase; “Not Active” on Glycine receptor; 10.9 µM in data set [2] (read-out: IC50); “Not Active” on Cytochrome P450 2C19. In data set [3], the IC50 result is “Not Active”. Besides, the Ki entry (at Cytochrome P450 2C19; in data set [3]) was “Not Active” throughout.
On to `Cc1nc2n(c(=O)c1CCN1CCC(c3noc4cc(F)ccc34)CC1)CCCC2` [RISPERIDONE], for which the IC50 result (at Adenosine receptor A3 (cho-k1); in data set [1]; at Neutrophil elastase; on Glycine receptor; in data set [2] (insect cells); against Cytochrome P450 2C19) was “Not Active” in each case. For the same molecule, on Cytochrome P450 2C19, the Ki result is “Not Active”.
On to `CCCCc1oc2ccccc2c1C(=O)c1cc(I)c(OCCN(CC)CC)c(I)c1` [AMIODARONE], for which the IC50 result on Neutrophil elastase is “Not Active”; against Glycine receptor, “Not Active”; in data set [2] (read-out: IC50) it was 0.817 µM.
Turning to `N[C@@H](Cc1cc(I)c(Oc2ccc(O)c(I)c2)c(I)c1)C(=O)O` [LIOTHYRONINE], the IC50 entry (against Adenosine receptor A3 (cho-k1); in data set [1]; at Neutrophil elastase; at Glycine receptor; in data set [2] (insect cells); against Cytochrome P450 2C19) was “Not Active” in each case. In addition, the Ki result at Cytochrome P450 2C19 is “Not Active”.
